{"source": "patent US12611423B2", "about": "“Medical use of tafoxiparin” (DILAFOR AB, priority 2022, dated 2026)", "assay": "anticoagulant activity (descriptive)", "data": [{"substance": "tafoxiparin", "values": [{"measurement": "anticoagulant activity", "value": "essentially no anticoagulant activity"}]}]}
